pIC50: −log10 of the molar value.
Target: T1, recombinant full-length USP7 (Homo sapiens, UniProt Q93009)
T1 construct: A 25 μl reaction volume containing recombinant full-length USP7 (62 pM)
Assay: USP7-mediated ubiquitin-rhodamine cleavage assay
Type: biochemical
Conditions: recombinant full-length USP7 62 pM; ubiquitin-rhodamine 100 nM; 30-minute incubation, 1 hour reaction at room temperature; read-out: Potency (USP7 IC50)
In short: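 After compound and enzyme (62 pM) sat together 30 min at RT, 100 nM fluorogenic ubiquitin-rhodamine substrate was added for 1 h protected from light. Acetic acid quenched the reaction prior to the fluorescence read.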

T1 sequence (Q93009 whole entry): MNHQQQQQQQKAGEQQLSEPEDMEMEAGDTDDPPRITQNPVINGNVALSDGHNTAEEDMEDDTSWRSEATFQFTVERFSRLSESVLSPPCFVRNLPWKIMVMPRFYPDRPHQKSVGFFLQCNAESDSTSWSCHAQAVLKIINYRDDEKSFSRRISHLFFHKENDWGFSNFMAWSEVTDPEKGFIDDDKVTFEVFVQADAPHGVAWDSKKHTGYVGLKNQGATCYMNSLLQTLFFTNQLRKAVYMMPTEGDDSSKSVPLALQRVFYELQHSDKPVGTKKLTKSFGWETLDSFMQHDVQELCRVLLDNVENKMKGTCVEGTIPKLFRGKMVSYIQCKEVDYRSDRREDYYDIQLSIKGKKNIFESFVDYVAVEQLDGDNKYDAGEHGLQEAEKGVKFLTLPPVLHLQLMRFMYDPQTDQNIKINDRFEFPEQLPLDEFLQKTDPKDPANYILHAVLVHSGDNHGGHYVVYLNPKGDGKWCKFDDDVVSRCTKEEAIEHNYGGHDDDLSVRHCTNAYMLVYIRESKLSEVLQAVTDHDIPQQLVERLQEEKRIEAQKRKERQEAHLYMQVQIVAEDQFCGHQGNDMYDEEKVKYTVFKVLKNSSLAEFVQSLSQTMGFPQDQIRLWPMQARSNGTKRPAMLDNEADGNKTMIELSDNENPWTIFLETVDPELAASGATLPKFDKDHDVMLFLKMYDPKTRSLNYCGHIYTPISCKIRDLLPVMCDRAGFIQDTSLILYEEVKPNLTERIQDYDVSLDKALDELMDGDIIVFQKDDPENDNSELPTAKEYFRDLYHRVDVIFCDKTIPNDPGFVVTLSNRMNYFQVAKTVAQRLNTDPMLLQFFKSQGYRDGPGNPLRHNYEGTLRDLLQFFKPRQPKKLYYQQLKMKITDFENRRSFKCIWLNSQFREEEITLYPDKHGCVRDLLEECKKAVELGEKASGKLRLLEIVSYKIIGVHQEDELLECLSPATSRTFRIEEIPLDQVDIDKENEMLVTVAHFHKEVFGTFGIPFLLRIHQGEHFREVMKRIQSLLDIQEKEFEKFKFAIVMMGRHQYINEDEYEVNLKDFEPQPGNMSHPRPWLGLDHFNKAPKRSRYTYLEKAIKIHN

Row | SMILES | pIC50
1 | COC[C@@H]1CCCN1C1CC(Oc2c(C)cc(Cl)cc2-c2ccnc3cc(Cn4c(=O)ccn(CC(F)(F)F)c4=O)sc23)C1 (stereo partly drawn) [Example 686, 3-[[7-[5-chloro-2-[3-[(2S)-2-(methoxymethyl)pyrrolidin-1-yl]cyclobutoxy]-3-methyl-phenyl]thieno[3,2-b]pyridin-2-yl]methyl]-1-(2,2,2-trifluoroethyl)pyrimidine-2,4-dione; 2,2,2-trifluoroacetic acid] | > 6.00
2 | Cc1cc(Cl)cc(-c2ccnc3cc(Cn4c(=O)ccn(CC(F)(F)F)c4=O)sc23)c1OC1CC(N2CCC[C@H]2CF)C1 (stereo partly drawn) [Example 687, 3-[[7-[5-chloro-2-[3-[(2S)-2-(fluoromethyl)pyrrolidin-1-yl]cyclobutoxy]-3-methyl-phenyl]thieno[3,2-b]pyridin-2-yl]methyl]-1-(2,2,2-trifluoroethyl)pyrimidine-2,4-dione; 2,2,2-trifluoroacetic acid] | > 6.00
3 | COC[C@@H]1CCC[N+]1(C)C1CC(Oc2c(C)cc(Cl)cc2-c2ccnc3cc(Cn4c(=O)ccn(CC(F)(F)F)c4=O)sc23)C1 (stereo partly drawn) [Example 688, 3-[[7-[5-chloro-2-[3-[(2S)-2-(methoxymethyl)-1-methyl-pyrrolidin-1-ium-1-yl]cyclobutoxy]-3-methyl-phenyl]thieno[3,2-b]pyridin-2-yl]methyl]-1-(2,2,2-trifluoroethyl)pyrimidine-2,4-dione; 2,2,2-trifluoroacetate; 2,2,2-trifluoroacetic acid] | > 6.00
4 | CCN1CC[C@@H](Oc2c(C)cc(Cl)cc2-c2ccnc3cc(Cn4c(=O)ccn(CC(F)(F)F)c4=O)sc23)[C@@H](C)C1 [Example 690, 3-[[7-[5-chloro-2-[[(3S,4R)-1-ethyl-3-methyl-4-piperidyl]oxy]-3-methyl-phenyl]thieno[3,2-b]pyridin-2-yl]methyl]-1-(2,2,2-trifluoroethyl)pyrimidine-2,4-dione] | > 6.00
5 | Cc1cc(Cl)cc(-c2ccnc3cc(Cn4c(=O)ccn(CC(F)(F)F)c4=O)sc23)c1O[C@@H]1CCN(CC(=O)O)C[C@@H]1C [Example 691, 2-[(3S,4R)-4-[4-chloro-2-[2-[[2,6-dioxo-3-(2,2,2-trifluoroethyl)pyrimidin-1-yl]methyl]thieno[3,2-b]pyridin-7-yl]-6-methyl-phenoxy]-3-methyl-1-piperidyl]acetic acid] | > 6.00
6 | CCN(CC)C(=O)CN1CC[C@@H](Oc2c(C)cc(Cl)cc2-c2ccnc3cc(Cn4c(=O)ccn(CC(F)(F)F)c4=O)sc23)[C@@H](C)C1 [Example 692, 2-[(3S,4R)-4-[4-chloro-2-[2-[[2,6-dioxo-3-(2,2,2-trifluoroethyl)pyrimidin-1-yl]methyl]thieno[3,2-b]pyridin-7-yl]-6-methyl-phenoxy]-3-methyl-1-piperidyl]-N,N-diethyl-acetamide] | > 6.00
7 | Cc1cc(Cl)cc(-c2ccnc3cc(CN4C(=O)CN(CC(F)(F)F)C4=O)sc23)c1O[C@H]1CCCNC1 [Example 693, 3-[[7-[5-chloro-3-methyl-2-[[(3S)-3-piperidyl]oxy]phenyl]thieno[3,2-b]pyridin-2-yl]methyl]-1-(2,2,2-trifluoroethyl)imidazolidine-2,4-dione; 2,2,2-trifluoroacetic acid] | > 6.00
8 | Cc1cc(Cl)cc(-c2ccnc3cc(Cn4c(=O)ccn(CC(F)(F)F)c4=O)sc23)c1O[C@H]1C[C@@H]2NCCO[C@H]2C1 [Example 694, 3-[[7-[2-[[(4aS,6S,7aS)-2,3,4,4a,5,6,7,7a-octahydrocyclopenta[b][1,4]oxazin-6-yl]oxy]-5-chloro-3-methyl-phenyl]thieno[3,2-b]pyridin-2-yl]methyl]-1-(2,2,2-trifluoroethyl)pyrimidine-2,4-dione] | > 6.00
9 | Cc1cc(Cl)cc(-c2ccnc3cc(Cn4c(=O)ccn(CC(F)(F)F)c4=O)sc23)c1O[C@@H]1C[C@@H]2NCCO[C@H]2C1 [Example 695, 3-[[7-[2-[[(4aS,6R,7aS)-2,3,4,4a,5,6,7,7a-octahydrocyclopenta[b][1,4]oxazin-6-yl]oxy]-5-chloro-3-methyl-phenyl]thieno[3,2-b]pyridin-2-yl]methyl]-1-(2,2,2-trifluoroethyl)pyrimidine-2,4-dione] | > 6.00
10 | Cc1cc(Cl)cc(-c2ccnc3cc(Cn4c(=O)ccn(CC(F)(F)F)c4=O)sc23)c1O[C@H]1C[C@@H]2NCCO[C@@H]2C1 [Example 696, 3-[[7-[2-[[(4aS,6S,7aR)-2,3,4,4a,5,6,7,7a-octahydrocyclopenta[b][1,4]oxazin-6-yl]oxy]-5-chloro-3-methyl-phenyl]thieno[3,2-b]pyridin-2-yl]methyl]-1-(2,2,2-trifluoroethyl)pyrimidine-2,4-dione] | > 6.00
11 | Cc1cc(Cl)cc(-c2ccnc3cc(Cn4c(=O)ccn(CC(F)(F)F)c4=O)sc23)c1OC1CC2(COCCN2)C1 (stereo not shown) [Example 697, 3-[[7-[5-chloro-3-methyl-2-(8-oxa-5-azaspiro[3.5]nonan-2-yloxy)phenyl]thieno[3,2-b]pyridin-2-yl]methyl]-1-(2,2,2-trifluoroethyl)pyrimidine-2,4-dione] | > 6.00
12 | Cc1cc(Cl)cc(-c2ccnc3cc(Cn4c(=O)ccn(CC(F)(F)F)c4=O)sc23)c1OC1CC2(COCCN2)C1 (stereo not shown) [Example 698, 3-[[7-[5-chloro-3-methyl-2-(8-oxa-5-azaspiro[3.5]nonan-2-yloxy)phenyl]thieno[3,2-b]pyridin-2-yl]methyl]-1-(2,2,2-trifluoroethyl)pyrimidine-2,4-dione] | > 6.00
13 | COCC1(N)CC(Oc2c(C)cc(Cl)cc2-c2ccnc3cc(Cn4c(=O)ccn(CC(F)(F)F)c4=O)sc23)C1 (stereo not shown) [Example 699, 3-[[7-[2-[3-amino-3-(methoxymethyl)cyclobutoxy]-5-chloro-3-methyl-phenyl]thieno[3,2-b]pyridin-2-yl]methyl]-1-(2,2,2-trifluoroethyl)pyrimidine-2,4-dione] | > 6.00
14 | Cc1cc(Cl)cc(-c2ccnc3cc(Cn4c(=O)ccn(CC(F)(F)F)c4=O)sc23)c1OC1CC(N2CC(O)C2)C1 (stereo not shown) [Example 700, 3-[[7-[5-chloro-2-[3-(3-hydroxyazetidin-1-yl)cyclobutoxy]-3-methyl-phenyl]thieno[3,2-b]pyridin-2-yl]methyl]-1-(2,2,2-trifluoroethyl)pyrimidine-2,4-dione; 2,2,2-trifluoroacetic acid] | > 6.00
15 | Cc1cc(Cl)cc(-c2ccnc3cc(Cn4c(=O)ccn(CC(F)(F)F)c4=O)sc23)c1OCCN1CCC1 [Example 701, 3-[[7-[2-[2-(azetidin-1-yl)ethoxy]-5-chloro-3-methyl-phenyl]thieno[3,2-b]pyridin-2-yl]methyl]-1-(2,2,2-trifluoroethyl)pyrimidine-2,4-dione; 2,2,2-trifluoroacetic acid] | > 6.00
16 | Cc1cc(Cl)cc(-c2ccnc3cc(Cn4c(=O)ccn(CC(F)(F)F)c4=O)sc23)c1OC(C)C [Example 702, 3-[[7-(5-chloro-2-isopropoxy-3-methyl-phenyl)thieno[3,2-b]pyridin-2-yl]methyl]-1-(2,2,2-trifluoroethyl)pyrimidine-2,4-dione] | 5.00 to 6.00

From US10722514B2 (FLX Bio, Inc., priority 2017, dated 2020)
